According to patent US20240408169A1 (priority 2023, published 2024):
*1 amine or outer side, *2 acyl side, *3 side chain or, on linkers, in order; H or OH if unused. Where a SMILES comes first, the peptide text is derived from it. Bridges are numbered along the chain shown (N, C = ends). [ ]: non-standard residue; d: D form. The star is where a group is joined. X48 = CN(C)C[C@H]1CN(c2ccc(-c3ccc(Cl)cc3C[C@@H](C(=O)[*:2])N(C)[*:1])cc2)CCO1; X81 = COc1cc(N2CCOCC2)ccc1-c1ccc(Cl)cc1C[C@@H](C(=O)[*:2])N(C)[*:1]; X105 = CN([C@@H](Cc1cc(Cl)ccc1-c1cnn(C2CCOC2)c1)C(=O)[*:2])[*:1]; X86 = CN([C@@H](Cc1cc(Cl)ccc1-c1cnn(C2CCOCC2)c1)C(=O)[*:2])[*:1]; X90 = CC(=O)N1CC=C(c2ccc(Cl)cc2C[C@@H](C(=O)[*:2])N(C)[*:1])CC1; NMehhhLys(Me) = CN([C@@H](CCCCCCCN(C)[*:3])C(=O)[*:2])[*:1]; X15 = CN([C@@H](Cc1cc(Cl)ccc1-c1cnn2c1CCC2)C(=O)[*:2])[*:1]; NMe(hhhLys) = CN([C@@H](CCCCCCCN[*:3])C(=O)[*:2])[*:1]; cBuCO(3,3-F2-1-CF3) = O=C(C1(C(F)(F)F)CC(F)(F)C1)*; Pro(trans-4-F) = O=C(O)[C@@H]1C[C@@H](F)CN1; Gly(cPr) = N[C@H](C(=O)O)C1CC1

Legend:
CyclinA2/CDK2 = target: T1, CyclinA2/CDK2 (Homo sapiens, UniProt P20248); assay: Fluorescence Polarization (FP) competitive binding assay, Cyclin A2/Cdk2; conditions: 8 nM Cyclin A2/Cdk2, 2 nM FAM probe; average of 2-3 independent experiments; read-out: Cyclin A FP IC50;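 further: plates equilibrated two hours at room temperature before polarization reading, IC50 fitted from eight-concentration compound titration curves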
T1 construct: purchased CRELUX Protein Services

NCI-H1048 cells = assay: MTT proliferation assay, NCI-H1048; assay type: cell-based; conditions: 5 days compound exposure, 1:3 serial dilution starting at 10 μM;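 further: Dose-response in 96-well plates over 8 or 10 concentration points, with exposure spanning 3-4 cell doublings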
WI-38 cells = assay: MTT proliferation assay, WI-38; assay type: cell-based; conditions: 3 days compound exposure, 1:3 serial dilution starting at 10 μM;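 further: Eight- or ten-point dilution series, with exposure length chosen to span about three to four cell doublings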
CyclinE1/CDK2 = target: T2, CyclinE1/CDK2 (Homo sapiens, UniProt P24864); assay: Fluorescence Polarization (FP) competitive binding assay, Cyclin E1/Cdk2; conditions: 10 nM Cyclin E1/Cdk2, 2 nM FAM probe; average of 2-3 independent experiments; read-out: Cyclin E FP IC50;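 further: readings taken after two-hour equilibration at room temperature in HEPES buffer with NaCl, DTT, NP-40 and BSA, IC50 fitted from eight-concentration serial dilution series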
T2 construct: purchased Eurofins, discovery 14-475

OVCAR3 cells = assay: MTT proliferation assay, OVCAR3; assay type: cell-based; conditions: 5 days compound exposure, 1:3 serial dilution starting at 10 μM;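 further: compound given as an 8- or 10-point series, one day after plating, with exposure covering roughly 3-4 cell doublings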
CyclinB1/CDK1 = target: T3, CyclinB1/CDK1 (Homo sapiens, UniProt P14635); assay: Fluorescence Polarization (FP) competitive binding assay, Cyclin B1/Cdk1; conditions: 10 nM Cyclin B1/Cdk1, 2 nM FAM probe; average of 2-3 independent experiments; read-out: Cyclin B FP IC50;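 further: fluorescence polarization read after equilibration at room temperature, with IC50 taken from serially diluted dose-response curves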
T3 construct: purchased Eurofins, discovery 14-450

Structure (SMILES)	IC50 (CyclinA2/CDK2) [nM]	GI50 (NCI-H1048 cells) [nM]	GI50 (WI-38 cells) [nM]	IC50 (CyclinE1/CDK2) [nM]	GI50 (OVCAR3 cells) [nM]	IC50 (CyclinB1/CDK1) [nM]
CC(C)C[C@@H]1NC(=O)[C@@H](N(C)C(=O)[C@@H](NC(=O)[C@@H]2C[C@@H](F)CN2C(=O)C2(C(F)(F)F)CC(F)(F)C2)C2CC2)CCCCCCCN(C)C(=O)[C@H](Cc2cc(Cl)ccc2-c2cnn(C3CCOCC3)c2)N(C)C1=O [Example 114] ({cBuCO(3,3-F2-1-CF3)}-[Pro(trans-4-F)][Gly(cPr)][NMehhhLys(Me)]L[X86]; lactam 3-C)	20	10	7190	400	10	20
COc1cc(N2CCOCC2)ccc1-c1ccc(Cl)cc1C[C@H]1C(=O)N(C)CCCCCCC[C@H](N(C)C(=O)[C@@H](NC(=O)[C@@H]2C[C@@H](F)CN2C(=O)C2(C(F)(F)F)CC(F)(F)C2)C2CC2)C(=O)N[C@@H](CC(C)C)C(=O)N1C [Example 361] ({cBuCO(3,3-F2-1-CF3)}-[Pro(trans-4-F)][Gly(cPr)][NMehhhLys(Me)]L[X81]; lactam 3-C)	50	30	14300	1840	10	20
CC(=O)N1CC=C(c2ccc(Cl)cc2C[C@H]2C(=O)NCCCCCCC[C@H](N(C)C(=O)[C@@H](NC(=O)[C@@H]3C[C@@H](F)CN3C(=O)C3(C(F)(F)F)CC(F)(F)C3)C3CC3)C(=O)N[C@@H](CC(C)C)C(=O)N2C)CC1 [Example 20] ({cBuCO(3,3-F2-1-CF3)}-[Pro(trans-4-F)][Gly(cPr)][NMe(hhhLys)]L[X90]; lactam 3-C)	20	20	11100	1520	20	20
COCn1cc(-c2ccc(Cl)cc2C[C@H]2C(=O)N(C)CCCCC=CC[C@H](N(C)C(=O)[C@@H](NC(=O)[C@@H]3C[C@@H](F)CN3C(=O)C3(C(F)(F)F)CCC3)C3CC3)C(=O)N[C@@H](CC(C)C)C(=O)N2C)cn1 [Example 80]	40	30	11600	300	30	20
CC(C)C[C@@H]1NC(=O)[C@@H](N(C)C(=O)[C@@H](NC(=O)[C@@H]2C[C@@H](F)CN2C(=O)C2(C(F)(F)F)CC(F)(F)C2)C2CC2)CCCCCCCN(C)C(=O)[C@H](Cc2cc(Cl)ccc2-c2cnn3c2CCC3)N(C)C1=O [Example 190] ({cBuCO(3,3-F2-1-CF3)}-[Pro(trans-4-F)][Gly(cPr)][NMehhhLys(Me)]L[X15]; lactam 3-C)	20	10	1980	660	10	20
CC(C)C[C@@H]1NC(=O)[C@@H](N(C)C(=O)[C@@H](NC(=O)[C@@H]2C[C@@H](F)CN2C(=O)C2(C(F)(F)F)CC(F)(F)C2)C2CC2)CCCCCCCN(C)C(=O)[C@H](Cc2cc(Cl)ccc2-c2ccc(N3CCO[C@@H](CN(C)C)C3)cc2)N(C)C1=O [Example 410] ({cBuCO(3,3-F2-1-CF3)}-[Pro(trans-4-F)][Gly(cPr)][NMehhhLys(Me)]L[X48]; lactam 3-C)	20	10	2000	650	10	20
CC(C)C[C@@H]1NC(=O)[C@@H](N(C)C(=O)[C@@H](NC(=O)[C@@H]2C[C@@H](F)CN2C(=O)C2(C(F)(F)F)CC(F)(F)C2)C2CC2)CC=CCCCCNC(=O)[C@H](Cc2cc(Cl)ccc2-c2cnn(C)c2)N(C)C1=O [Example 26]	60	110	8740	1170	170	20
CC(C)C[C@@H]1NC(=O)[C@@H](N(C)C(=O)[C@@H](NC(=O)[C@@H]2C[C@@H](F)CN2C(=O)C2(C(F)(F)F)CC(F)(F)C2)C2CC2)CCCCCCCN(C)C(=O)[C@H](Cc2cc(Cl)ccc2-c2cnn(C3CCOC3)c2)N(C)C1=O (stereo partly drawn) [Example 113] ({cBuCO(3,3-F2-1-CF3)}-[Pro(trans-4-F)][Gly(cPr)][NMehhhLys(Me)]L[X105]; lactam 3-C)	20	10	7240	310	10	20
